PubChem BioAssay AID2060483 (Molecular Pharmacology Branch, DTP, NCI, 2025)

Test system: K24384-001-R-PDC complex spheroids, viability
Assay: Anticancer human tumor K24384-001-R-PDC patient-derived pancreatic adenocarcinoma cell line growth inhibition [GQUAD]
Settings: for IC50: curve of first compound; for viability, T/C: stronger effect = lower value
How it was run: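 Viability of tumor cells grown as complex spheroids with endothelial and stromal cells, exposed to drug combinations. Top concentration at or near clinical Cmax (else 10 microM), diluted in half-log increments.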

[1] = second compound 0.0316 µM, first compound 0.0316 µM
[2] = second compound 0.0316 µM, first compound 0.1 µM
[3] = second compound 0.0316 µM, first compound 0.316 µM
[4] = second compound 0.0316 µM, first compound 1 µM
[5] = second compound 0.0316 µM, first compound 3.16 µM
[6] = second compound 0.0316 µM, first compound 10 µM
[7] = second compound 0.1 µM, first compound 0.0316 µM
[8] = second compound 0.1 µM, first compound 0.1 µM
[9] = second compound 0.1 µM, first compound 0.316 µM
[10] = second compound 0.1 µM, first compound 1 µM
[11] = second compound 0.1 µM, first compound 3.16 µM
[12] = second compound 0.1 µM, first compound 10 µM
[13] = second compound 0.316 µM, first compound 0.0316 µM
[14] = second compound 0.316 µM, first compound 0.1 µM
[15] = second compound 0.316 µM, first compound 0.316 µM
[16] = second compound 0.316 µM, first compound 1 µM
[17] = second compound 0.316 µM, first compound 3.16 µM
[18] = second compound 0.316 µM, first compound 10 µM
[19] = second compound 1 µM, first compound 0.0316 µM
[20] = second compound 1 µM, first compound 0.1 µM
[21] = second compound 1 µM, first compound 0.316 µM
[22] = second compound 1 µM, first compound 1 µM
[23] = second compound 1 µM, first compound 3.16 µM
[24] = second compound 1 µM, first compound 10 µM
[25] = second compound 3.16 µM, first compound 0.0316 µM
[26] = second compound 3.16 µM, first compound 0.1 µM
[27] = second compound 3.16 µM, first compound 0.316 µM
[28] = second compound 3.16 µM, first compound 1 µM
[29] = second compound 3.16 µM, first compound 3.16 µM
[30] = second compound 3.16 µM, first compound 10 µM
[31] = second compound 10 µM, first compound 0.0316 µM
[32] = second compound 10 µM, first compound 0.1 µM
[33] = second compound 10 µM, first compound 0.316 µM
[34] = second compound 10 µM, first compound 1 µM
[35] = second compound 10 µM, first compound 3.16 µM
[36] = second compound 10 µM, first compound 10 µM
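Further: spheroids exposed to compounds for seven days.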

Compound: COc1cc(C2c3cc4c(cc3C(OC3OC5COC(C)OC5C(O)C3O)C3COC(=O)C23)OCO4)cc(OC)c1O (stereo unspecified) + Cc1cnc(CNC(=O)c2c(=O)c3ccc(N4CCCN(C)CC4)nc3n3c2sc2ccccc23)cn1
- IC50 (second compound 0.0316 µM): 865 nM
- IC50 (second compound 0.1 µM): 2380 nM
- IC50 (second compound 0.316 µM): 31.6 nM
- IC50 (second compound 1 µM): < 31.6 nM
- IC50 (second compound 3.16 µM): < 31.6 nM
- IC50 (second compound 10 µM): < 31.6 nM
- viability, T/C [1]: 79.9%
- viability, T/C [2]: 71.2%
- viability, T/C [3]: 99.5%
- viability, T/C [4]: 45.1%
- viability, T/C [5]: 45.3%
- viability, T/C [6]: 25.9%
- viability, T/C [7]: 62.1%
- viability, T/C [8]: 68.8%
- viability, T/C [9]: 61.3%
- viability, T/C [10]: 57.5%
- viability, T/C [11]: 47.8%
- viability, T/C [12]: 34.1%
- viability, T/C [13]: 46.1%
- viability, T/C [14]: 51.4%
- viability, T/C [15]: 46%
- viability, T/C [16]: 46.4%
- viability, T/C [17]: 52.4%
- viability, T/C [18]: 34.8%
- viability, T/C [19]: 35.1%
- viability, T/C [20]: 49.1%
- viability, T/C [21]: 38.1%
- viability, T/C [22]: 46%
- viability, T/C [23]: 43.4%
- viability, T/C [24]: 30.8%
- viability, T/C [25]: 36.3%
- viability, T/C [26]: 44.9%
- viability, T/C [27]: 41.2%
- viability, T/C [28]: 47.1%
- viability, T/C [29]: 39%
- viability, T/C [30]: 26%
- viability, T/C [31]: 30.4%
- viability, T/C [32]: 28.1%
- viability, T/C [33]: 32.3%
- viability, T/C [34]: 33%
- viability, T/C [35]: 10.4%
- viability, T/C [36]: 0.63%

Compound: Nc1ccn(C2OC(CO)C(O)C2(F)F)c(=O)n1 (stereo unspecified) + Cc1cnc(CNC(=O)c2c(=O)c3ccc(N4CCCN(C)CC4)nc3n3c2sc2ccccc23)cn1
- IC50 (second compound 0.0316 µM): 431 nM
- IC50 (second compound 0.1 µM): 396 nM
- IC50 (second compound 0.316 µM): < 31.6 nM
- IC50 (second compound 1 µM): < 31.6 nM
- IC50 (second compound 3.16 µM): < 31.6 nM
- IC50 (second compound 10 µM): < 31.6 nM
- viability, T/C [1]: 68%
- viability, T/C [2]: 64.8%
- viability, T/C [3]: 58.6%
- viability, T/C [4]: 26.7%
- viability, T/C [5]: 28.4%
- viability, T/C [6]: 22.3%
- viability, T/C [7]: 52.5%
- viability, T/C [8]: 54%
- viability, T/C [9]: 56.3%
- viability, T/C [10]: 32.5%
- viability, T/C [11]: 27.2%
- viability, T/C [12]: 20.9%
- viability, T/C [13]: 45.8%
- viability, T/C [14]: 45.6%
- viability, T/C [15]: 38.3%
- viability, T/C [16]: 36.9%
- viability, T/C [17]: 32.2%
- viability, T/C [18]: 17.6%
- viability, T/C [19]: 40.7%
- viability, T/C [20]: 43.5%
- viability, T/C [21]: 39.7%
- viability, T/C [22]: 41%
- viability, T/C [23]: 31.8%
- viability, T/C [24]: 16.2%
- viability, T/C [25]: 41.3%
- viability, T/C [26]: 43.1%
- viability, T/C [27]: 32.3%
- viability, T/C [28]: 36%
- viability, T/C [29]: 33.8%
- viability, T/C [30]: 12.2%
- viability, T/C [31]: 29.4%
- viability, T/C [32]: 19.3%
- viability, T/C [33]: 28.6%
- viability, T/C [34]: 19.8%
- viability, T/C [35]: 0.34%
- viability, T/C [36]: 0.27%

Compound: O=c1[nH]cc(F)c(=O)[nH]1 + Cc1cnc(CNC(=O)c2c(=O)c3ccc(N4CCCN(C)CC4)nc3n3c2sc2ccccc23)cn1
- IC50 (second compound 0.0316 µM): 877 nM
- IC50 (second compound 0.1 µM): > 10000 nM
- IC50 (second compound 0.316 µM): < 31.6 nM
- IC50 (second compound 1 µM): < 31.6 nM
- IC50 (second compound 3.16 µM): < 31.6 nM
- IC50 (second compound 10 µM): < 31.6 nM
- viability, T/C [1]: 78.1%
- viability, T/C [2]: 90.8%
- viability, T/C [3]: 78.9%
- viability, T/C [4]: 45.7%
- viability, T/C [5]: 53.1%
- viability, T/C [6]: 40%
- viability, T/C [7]: 55.8%
- viability, T/C [8]: 68.3%
- viability, T/C [9]: 69.5%
- viability, T/C [10]: 50.9%
- viability, T/C [11]: 70.9%
- viability, T/C [12]: 50.4%
- viability, T/C [13]: 45.7%
- viability, T/C [14]: 47.3%
- viability, T/C [15]: 51.7%
- viability, T/C [16]: 41.8%
- viability, T/C [17]: 48.2%
- viability, T/C [18]: 47%
- viability, T/C [19]: 35.9%
- viability, T/C [20]: 46.4%
- viability, T/C [21]: 41.9%
- viability, T/C [22]: 48.6%
- viability, T/C [23]: 53.9%
- viability, T/C [24]: 38.2%
- viability, T/C [25]: 33.3%
- viability, T/C [26]: 37%
- viability, T/C [27]: 37.1%
- viability, T/C [28]: 49.7%
- viability, T/C [29]: 47.1%
- viability, T/C [30]: 34%
- viability, T/C [31]: 28.3%
- viability, T/C [32]: 25.2%
- viability, T/C [33]: 30.6%
- viability, T/C [34]: 35.4%
- viability, T/C [35]: 19.8%
- viability, T/C [36]: 23.1%
